The values that follow come from patent publication US12522584B2, “3,4-dihydroisoquinoline compound and use thereof” (CSPC Zhongqi Pharmaceutical Technology (Shijiazhuang) Co., …, priority 2020, dated 2026).

The target of one series is PRMT5 (Homo sapiens (Human), UniProt O14744). The experiment in a line: radiometric assay for PRMT5 based on FlashPlate technology. To be noted: PRMT5 5 nM, [3H]-SAM, 60 min at 25° C.; read-out: Enzymology (IC50). Format: biochemical. On the procedure: The radiometric assay for PRMT5 based on FlashPlate technology was adopted to determine IC50 of the test compound.
After dissolved in dimethyl sulfoxide respectively, the test compounds were added into an Echo Qualified 384-well plate and diluted to the desired concentrations. The diluted test compounds were transferred from the Echo Qualified 384-well plate to a 384-well reaction plate using an Echo 550 instrument, and dimethyl sulfoxide was transferred into both the control and blank wells. PRMT5 was added to 1×reaction buffer (including 10 mM Tris-HCl; pH 8.0; 0.01% Tween-20; 1 mM DTT) to form a 1.67×enzyme solution (at an enzyme concentration of 5 nM). A polypeptide substrate and [3H]-SAM were added to 1× reaction buffer to form a 2.5× substrate solution (the terminal concentrations of the substrates were 100 nM and 250 nM, respectively). At a volume of 15 μL/well, the 1.67× enzyme solution was added into wells of the 384-well reaction plate. In case of the blank wells, the enzyme solution was replaced with 15 μL of the 1× reaction buffer. The reaction plate was centrifuged at 1000 rpm for 1 min, and incubated at room temperature for 15 min. To each well of the 384-well reaction plate, 10 μL of the 2.5× substrate solution was added, centrifuged at 1000 rpm for 1 min, and reacted at 25° C. for 60 min. To each well of the 384-well reaction plate, 5 μL of reaction stop solution (which was […] cold SAM solution) was added to terminate the reaction. From each well of the test plate, 25 μL was measured and transferred to Flashplate and left at room temperature for 1 h. Thereafter, the Flashplate was washed with 0.1% Tween-20 solution three times. Readings were taken with MicroBeta 2. The data was converted into the inhibition rate data. Inhibition rate=(conversion ratecontrol well−conversion ratecompound well)/(conversion ratecontrol well−conversion rateblank well)×100%. The IC50curves were fitted using XLFit5.4.0.8. The fitting equation was as follows:Y=Bottom+(Top-Bottom)/(1+(IC50/X)^HillSlope).

Series [1] deals with human acute monocytic leukemia cell line MV4-11. The experiment in a line: MV4-11 MTT cell growth inhibition. Format: cell-based. Particulars: 144 h, MV4-11 cells, MTT on Day 6. On the procedure:
The complete medium required for the culture of human acute monocytic leukemia cell line MV4-11 (Shanghai Cell Bank) for experiment was IMDM (Cat NO. 12440-053, gibco) supplemented with 10% FBS (Cat NO. SA311.02, cellmax). The cells were cultured in an incubator at 37° C. with 5% CO2. The experiment reagents included dimethyl sulfoxide (Tianjin Kemiou Chemical Reagent Co., Ltd.) and MTT (THIAZOLYL BLUE TETRAZOLIUM BROMIDE, CAS. NO. 298-93-1, VWR). The control compound GSK3326595 for experiment was homemade or commercially available. The test compound was encapsulated and stored at 4° C.
Dimethyl sulfoxide was used as a vehicle to fully dissolve the test compound, thereby formulating a stock solution at a concentration of 5×10^−2 mol/L. The stock solution was stored at −20° C. With the complete medium as diluent, the test compound was subjected to gradient dilution to afford dilutions at different concentrations for standby application. In a 96-well culture plate, the suspension of the human acute monocytic leukemia cell line MV4-11 in the complete medium, at a volume of 100 μL/well (2×10^3 cells/well), was added. Afterwards, the dilutions at different concentrations of the corresponding test compounds (100 μL/well) were added, respectively. Each of the test compounds was provided with 8 concentration gradients and three replicates were used for each concentration. The plates were incubated in an incubator at 37° C. with 5% CO2. On Day 6, the plate was treated with MTT (20 μL/well) and incubated for 4 h in an incubator at 37° C. with 5% CO2. The supernatant was discarded. Dimethyl sulfoxide (150 μL/well) was added and mixed well by shaking. The OD value at 550 nm was measured with a microplate reader. Wells containing only cell suspensions without the test compounds were control wells, and wells containing only complete media were blank wells. The cell growth inhibition rate was calculated according to the following equation: Inhibition rate=(OD valuecontrol well−OD valuesample well)/(OD valuecontrol well−OD valueblank well)×100%. According to the inhibition rate at each concentration, the half maximal inhibitory concentration IC50 value was calculated using the SPSS software. 2. Enzymatic Experiment

A short description of series [2]: Pharmacokinetic experiment in SD rats. To be noted: male, rat, plasma, po, 25 mg/kg.
Experimental: SD rats (male, 180 g to 200 g, Beijing Vital River Laboratory Animal Technology Co., Ltd.) were administered with the test compounds (solvent: 2% DMSO+98% (0.2 g/mL) hydroxypropyl-β-cyclodextrin, dosing volume: 5 mL/kg) by gavage. Blood was collected from the orbits of the rats at different points in time (0.25, 0.5, 1, 2, 4, 8, 24 h) after administration. The collected whole blood was anticoagulated with heparin sodium and centrifuged at 3000 g to obtain rat plasma samples, and methanol was added thereto to precipitate proteins. The drug concentration in rat plasma after administration was determined by HIPLC-MS/MS method. A drug concentration-time curve was plotted and the pharmacokinetic parameters were calculated. Pharmacokinetic behaviors of the compounds after administration in rats were described by means of the parameter estimation of non-compartmental model based on statistical moment theory.
For another series, the system named is MV4-11 xenografts. As to the kind of experiment: In vivo efficacy in MV4-11 subcutaneous xenograft model. Particulars: for d9 Tumor Volume (mm^3) / Body Weight Change (%) / Tumor Weight / Tumor weight inhibition rate (%) / RTV (d9): 100 mg/kg BID; for d9 Tumor Volume (mm^3): 9th day after administration; for Body Weight Change (%): 11 consecutive days, NOD-SCID mice; for Tumor Weight / Tumor weight inhibition rate (%): 11 days; for Tumor Weight: tumors dissected at end; for Tumor weight inhibition rate (%): versus vehicle group; for d0 Tumor Volume (mm^3): d0, before grouping for administration (baseline); for RTV (d9): relative tumor volume = d9/d0 tumor volume.

Marks after values point to notes of the source that are not given here.

PRMT5, sequence (O14744 whole entry): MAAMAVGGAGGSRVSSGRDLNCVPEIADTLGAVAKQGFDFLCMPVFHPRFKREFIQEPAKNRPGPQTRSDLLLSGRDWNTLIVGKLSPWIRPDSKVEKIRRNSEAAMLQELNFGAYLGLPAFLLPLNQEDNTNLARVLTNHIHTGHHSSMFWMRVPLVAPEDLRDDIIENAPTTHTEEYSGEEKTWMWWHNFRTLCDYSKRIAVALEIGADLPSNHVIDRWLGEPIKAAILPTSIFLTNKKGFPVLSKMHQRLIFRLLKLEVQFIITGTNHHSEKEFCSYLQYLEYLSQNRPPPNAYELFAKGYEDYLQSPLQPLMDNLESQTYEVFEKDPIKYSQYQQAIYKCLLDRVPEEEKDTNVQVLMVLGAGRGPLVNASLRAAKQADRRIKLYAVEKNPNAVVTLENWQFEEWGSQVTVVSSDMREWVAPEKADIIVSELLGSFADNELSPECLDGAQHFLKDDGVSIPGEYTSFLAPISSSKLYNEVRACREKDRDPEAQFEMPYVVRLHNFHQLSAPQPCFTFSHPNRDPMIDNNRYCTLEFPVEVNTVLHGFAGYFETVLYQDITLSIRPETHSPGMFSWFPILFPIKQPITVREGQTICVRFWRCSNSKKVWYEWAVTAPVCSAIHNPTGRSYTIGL
PRMT5, sequence (Q9BQA1 whole entry partner): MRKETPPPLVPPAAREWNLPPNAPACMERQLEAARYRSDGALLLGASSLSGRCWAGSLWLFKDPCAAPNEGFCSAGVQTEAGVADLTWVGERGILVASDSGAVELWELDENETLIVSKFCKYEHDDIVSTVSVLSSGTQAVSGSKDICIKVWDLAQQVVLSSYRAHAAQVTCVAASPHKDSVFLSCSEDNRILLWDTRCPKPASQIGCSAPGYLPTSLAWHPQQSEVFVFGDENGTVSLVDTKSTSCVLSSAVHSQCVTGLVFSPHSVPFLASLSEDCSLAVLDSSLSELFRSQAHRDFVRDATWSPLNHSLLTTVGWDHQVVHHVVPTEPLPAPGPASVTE
Experimental for MV4-11 xenografts: Experimental female NOD-SCID mice, SPF grade, 4 to 5 weeks, were purchased from Beijing Vital River Laboratory Animal Technology Co., Ltd. The mice were intraperitoneally injected with cyclophosphamide at a dose of 100 mg/kg one day before cell inoculation. The human acute monocytic leukemia cell line MV4-11 (1×10^7/0.1 ml/mouse) was subcutaneously inoculated into forelimb axilla of mice to establish a subcutaneous xenograft model. When the tumor volumes reached about 110 mm^3 (10 days after inoculation), the mice were equally grouped according to the tumor volume, with 5 mice in each group, i.e., vehicle group (2% DMSO+98% (0.2 g/mL) hydroxypropyl-β-cyclodextrin) and test drug groups. For the test drug groups, the dose of administration was 100 mg/kg, the dosing volume was 10 mL/kg, the dosing frequency was BID, the tumor diameters were measured twice per week, and the data was recorded. The mice were administered for 11 consecutive days. When the experiment ended, the tumors were dissected and weighed.

In the case of `O=C(NC[C@H](O)CN1CCc2ccccc2C1)c1cc(NC2CCN(C(=O)C(=NO)C3CC3)CC2)ncn1` [PR-1, (S)-6-((1-(2-cyclopropyl-2-(hydroxyimino)acetyl)piperidin-4-yl)amino)-N-(3-(3,4-dihydroisoquinolin-2(1H)-yl)-2-hydroxypropyl)pyrimidine-4-carboxamide], the results for the IC50 (at PRMT5; in series [1]) were 13 nM and 5.02 nM, respectively.

On to `CC(=NO)C(=O)N1CCC(Nc2cc(C(=O)NC[C@H](O)CN3CCc4ccccc4C3)ncn2)CC1` [PR-3, (S)-N-(3-(3,4-dihydroisoquinolin-2(1H)-yl)-2-hydroxypropyl)-6-((1-(2-(hydroxyimino)propanoyl)piperidin-4-yl)amino)pyrimidine-4-carboxamide], for which the results for the IC50 (on PRMT5; in series [1]) were 15 nM and 1.24 nM, respectively.

In the case of `CON=C(C)C(=O)NC1CC2(C1)CC(Nc1cc(C(=O)NC[C@H](O)CN3CCc4ccccc4C3)ncn1)C2` (stereo partly drawn) [PR-9, (S)-N-(3-(3,4-dihydroisoquinolin-2(1H)-yl)-2-hydroxypropyl)-6-((6-(2-(methoxyimino)propanamido)spiro[3.3]heptan-2-yl)amino)pyrimidine-4-carboxamide], the IC50 on PRMT5 was found to be 23 nM. This molecule yielded an IC50 in series [1] of 6.84 nM. In addition, in series [2], the AUC(0-t) amounted to 1270 ng·h/mL, the highest level (Cmax) was 875 ng/mL and the Tmax was 30 min.

Consider `CON=C(C(=O)NC1CC2(C1)CC(Nc1cc(C(=O)NC[C@H](O)CN3CCc4ccccc4C3)ncn1)C2)C1CC1` (stereo partly drawn) [PR-7, (S)-6-((6-(2-cyclopropyl-2-(methoxyimino)acetamido)spiro[3.3]heptan-2-yl)amino)-N-(3-(3,4-dihydroisoquinolin-2(1H)-yl)-2-hydroxypropyl)pyrimidine-4-carboxamide], for which the IC50 at PRMT5 was found to be 14 nM. This molecule also came in with an IC50 in series [1] of 1.04 nM. In addition, in series [2], the AUC(0-t) was determined as 2540 ng·h/mL, the peak level (Cmax) was 1120 ng/mL and the Tmax is 40 min. Further, in the series on MV4-11 xenografts, the “d9 Tumor Volume (mm^3)” value is listed as 60.2 ± 20.1***## mm^3, the “Body Weight Change (%)” value is −6.9%, the “Tumor Weight” value worked out at 0.0710 ± 0.0353 g and the “Tumor weight inhibition rate (%)” value came out at 90.2%. In the series with MV4-11 xenografts, the “d0 Tumor Volume (mm^3)” value stood at 165.6 ± 28.1 mm^3 and the “RTV (d9)” value was 0.4 ± 0.1.

`CON=C(C(=O)N1CC2(CC(Nc3cc(C(=O)NC[C@H](O)CN4CCc5ccccc5C4)ncn3)C2)C1)C1CC1` [PR-12, (S)-6-((2-(2-cyclopropyl-2-(methoxyimino)acetyl)-2-azaspiro[3.3]heptan-6-yl)amino)-N-(3-(3,4-dihydroisoquinolin-2(1H)-yl)-2-hydroxypropyl)pyrimidine-4-carboxamide]: the IC50 at PRMT5 turned out to be 2.7 nM; in series [1], 0.691 nM.

Regarding `CON=C(C(=O)N1CCC(Nc2cc(C(=O)NC[C@H](O)CN3CCc4ccccc4C3)ncn2)CC1)C1CC1` [PR-2, (S)-6-((1-(2-cyclopropyl-2-(methoxyimino)acetyl)piperidin-4-yl)amino)-N-(3-(3,4-dihydroisoquinolin-2(1H)-yl)-2-hydroxypropyl)pyrimidine-4-carboxamide], the IC50 on PRMT5 stood at 13 nM. Moreover, in series [2], the AUC(0-t) came out at 821 ng·h/mL, the highest level (Cmax) was 473 ng/mL and the Tmax stood at 30 min.

For the molecule `O=C(NC1CC2(C1)CC(Nc1cc(C(=O)NC[C@H](O)CN3CCc4ccccc4C3)ncn1)C2)C(=NO)C1CC1` (stereo partly drawn) [PR-6, (S)-6-((6-(2-cyclopropyl-2-(hydroxyimino)acetamido)spiro[3.3]heptan-2-yl)amino)-N-(3-(3,4-dihydroisoquinolin-2(1H)-yl)-2-hydroxypropyl)pyrimidine-4-carboxamide], the IC50 on PRMT5 turned out to be 16 nM; in series [1] it was 1.9 nM.

In series [1], `CON=C(C)C(=O)N1CCC(Nc2cc(C(=O)NC[C@H](O)CN3CCc4ccccc4C3)ncn2)CC1` [PR-4, (S)-N-(3-(3,4-dihydroisoquinolin-2(1H)-yl)-2-hydroxypropyl)-6-((1-(2-(methoxyimino)propanoyl)piperidin-4-yl)amino)pyrimidine-4-carboxamide] came in with an IC50 of 6.77 nM. In the series with MV4-11 xenografts, the “d9 Tumor Volume (mm^3)” value was 55.7 ± 19.7***## mm^3, the “Body Weight Change (%)” value is −6.1%, the “Tumor Weight” value stood at 0.0648 ± 0.0267 g and the “Tumor weight inhibition rate (%)” value amounted to 91.1%. In the series with MV4-11 xenografts, the “d0 Tumor Volume (mm^3)” value came out at 165.3 ± 27.5 mm^3 and the “RTV (d9)” value is 0.4 ± 0.1.

Consider `CC(=O)N1CCC(Nc2cc(C(=O)NC[C@H](O)CN3CCc4ccccc4C3)ncn2)CC1` [GSK3326595, reference compound], for which, in the series with MV4-11 xenografts, the “d9 Tumor Volume (mm^3)” value is given as 135 ± 43** mm^3, the “Body Weight Change (%)” value was −6.8%, the “Tumor Weight” value is 0.1124 ± 0.0764 g and the “Tumor weight inhibition rate (%)” value was determined as 84.5%. In the series on MV4-11 xenografts, the “d0 Tumor Volume (mm^3)” value turned out to be 165.2 ± 23.1 mm^3 and the “RTV (d9)” value is reported as 0.8 ± 0.2.

In the case of `CC(=NO)C(=O)NC1CC2(C1)CC(Nc1cc(C(=O)NC[C@H](O)CN3CCc4ccccc4C3)ncn1)C2` (stereo partly drawn) [PR-8, (S)-N-(3-(3,4-dihydroisoquinolin-2(1H)-yl)-2-hydroxypropyl)-6-((6-(2-(hydroxyimino)propanamido)spiro[3.3]heptan-2-yl)amino)pyrimidine-4-carboxamide], the IC50 came to 19 nM on PRMT5 and 0.98 nM in series [1].

Turning to `CON=C(CC(C)C)C(=O)N1CCC(Nc2cc(C(=O)NC[C@H](O)CN3CCc4ccccc4C3)ncn2)CC1` [PR-5, (S)-N-(3-(3,4-dihydroisoquinolin-2(1H)-yl)-2-hydroxypropyl)-6-((1-(2-(methoxyimino)-4-methylpentanoyl)piperidin-4-yl)amino)pyrimidine-4-carboxamide], the IC50 at PRMT5 worked out at 23 nM. In series [1], this molecule came in with an IC50 of 1.44 nM. For the same molecule, in series [2], the area under the curve AUC(0-t) is 674 ng·h/mL, the Cmax turned out to be 660 ng/mL and the Tmax worked out at 20 min.

With `O=C(NC[C@H](O)CN1CCc2ccccc2C1)c1cc(NC2CC3(C2)CN(C(=O)C(=NO)C2CC2)C3)ncn1` [PR-11, (S)-6-((2-(2-cyclopropyl-2-(hydroxyimino)acetyl)-2-azaspiro[3.3]heptan-6-yl)amino)-N-(3-(3,4-dihydroisoquinolin-2(1H)-yl)-2-hydroxypropyl)pyrimidine-4-carboxamide], the IC50 on PRMT5 amounted to 18 nM; in series [1], 1.4 nM.
